Experimental data from patent EP1561465A2, “Methods of use of fluoroquinolone compounds against bacteria” (LG Life Sciences, Ltd., priority 1999, dated 2001).
Converted amounts (≈) assume the structure as drawn. Where two headings read alike, the source gives them in different places.

What was measured:
[1] = tested on: Streptococcus pneumoniae; assay: MIC by NCCLS reference broth microdilution, 450 respiratory tract pathogens; format: cell-based; conditions: Streptococcus pneumoniae
[2] = tested on: Streptococcus pyogenes; assay: as above; format: cell-based; conditions: Streptococcus pyogenes
[3] = tested on: Haemophilus influenzae; assay: as above; format: cell-based; conditions: for MIC / MIC50: Haemophilus influenzae
[4] = tested on: Moraxella catarrhalis; assay: as above; format: cell-based
[5] = tested on: Staphylococcus aureus; assay: as above; format: cell-based
[6] = tested on: Klebsiella pneumoniae; assay: as above; format: cell-based
[7] = tested on: Haemophilus influenzae; assay: MIC by two-fold serial agar dilution, Sensitivity Disk agar-N (Kitasato isolates); format: cell-based; conditions: Haemophilus influenzae (24)
[8] = tested on: Moraxella catarrhalis; assay: as above; format: cell-based; conditions: Moraxella catarrhalis (22)
[9] = tested on: Streptococcus pneumoniae; assay: as above; format: cell-based; conditions: Streptococcus pneumoniae; for MIC: 18 h, read-out: MIC Range
[10] = tested on: E. coli; assay: microbe, parasite or virus in culture; format: cell-based; conditions: Escherichia coli
[11] = tested on: P. aeruginosa; assay: MIC by two-fold serial agar dilution, quinolone-resistant strains; format: cell-based; conditions: Pseudomonas aeruginosa
[12] = tested on: Pseudomonas aeruginosa; assay: MIC by agar dilution (NCCLS), 322 nosocomial Gram negative isolates, Athens 1998; format: cell-based; conditions: n = 57 isolates
[13] = tested on: Escherichia coli; assay: as above; format: cell-based; conditions: n = 57 isolates
[14] = tested on: Klebsiella pneumoniae; assay: as above; format: cell-based; conditions: n = 56 isolates
[15] = tested on: Proteus mirabilis; assay: as above; format: cell-based; conditions: Proteus mirabilis; n = 57 isolates
[16] = tested on: Enterobacter spp.; assay: as above; format: cell-based; conditions: Enterobacter; n = 57 isolates; read-out: MIC50
[17] = tested on: Acinetobacter spp.; assay: as above; format: cell-based; conditions: Acinetobacter; n = 38 strains
[18] = tested on: Salmonella spp.; assay: MIC by agar dilution (NCCLS M7-A4), 288 enteropathogenic isolates, gemifloxacin and 15 other antimicrobials; format: cell-based; conditions: for MIC: Salmonella
[19] = tested on: Yersinia enterocolitica; assay: as above; format: cell-based
[20] = tested on: Aeromonas spp.; assay: as above; format: cell-based; conditions: for MIC: Aeromonas
[21] = tested on: Campylobacter jejuni; assay: as above; conditions: for MIC: Campylobacter jejuni
[22] = tested on: Hafnia alvei; assay: as above; format: cell-based; conditions: for MIC: Hafnia alvei
[23] = tested on: Shigella spp.; assay: as above; format: cell-based; conditions: Shigella spp. N= 21
Outline: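 Agar dilution with ~10^4 cfu/spot inoculum; plates incubated aerobically at 35 °C for 24 h, except C. jejuni, held microaerophilically for 48 h. MIC taken as lowest antibiotic concentration with no visible growth.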

[24] = tested on: Campylobacter jejuni; conditions: Campylobacter jejuni N= 91
[25] = Streptococcus pyogenes (n = 100)
[26] = erythromycin resistant I phenotype [MLSB] (n = 20)
[27] = erythromycin resistant M phenotype (n = 20)
[28] = Haemophilus influenzae (n = 100)
[29] = Klebsiella pneumoniae, Klebsiella pneumoniae (n = 50)

O=C(O)c1cn(C2CC2)c2cc(N3CCNCC3)c(F)cc2c1=O [Ciprofloxacin, ciprofloxacin]
MIC ([1]; Streptococcus pneumoniae (n = 100)): 0.06 to 4 mg/L (≈ 0.181 to 12.1 µM) | MIC ([1]; multi-drug resistant (n = 16)): 0.5 to 4 mg/L (≈ 1.51 to 12.1 µM) | MIC ([1]; penicillin intermediate (n = 16)): 0.5 to 2 mg/L (≈ 1.51 to 6.04 µM) | MIC ([1]; penicillin resistant (n = 18)): 0.5 to 8 mg/L (≈ 1.51 to 24.1 µM) | MIC50 ([1]; penicillin resistant (n = 18)): 0.5 mg/L (≈ 1.51 µM) | MIC90 ([1]; penicillin resistant (n = 18)): 8 mg/L (≈ 24.1 µM) | MIC ([1]; penicillin susceptible (n = 20)): 0.06 to 2 mg/L (≈ 0.181 to 6.04 µM) | MIC [2, 25]: 0.12 to 2 mg/L (≈ 0.362 to 6.04 µM) | MIC90 [2, 25]: 0.5 mg/L (≈ 1.51 µM) | MIC ([2]; erythromycin resistant C phenotype [MLSB] (n = 20)): 0.25 to 0.5 mg/L (≈ 0.754 to 1.51 µM) | MIC [2, 26]: 0.12 to 2 mg/L (≈ 0.362 to 6.04 µM) | MIC90 [2, 26]: 0.5 mg/L (≈ 1.51 µM) | MIC [2, 27]: 0.12 to 0.5 mg/L (≈ 0.362 to 1.51 µM) | MIC90 [2, 27]: 0.5 mg/L (≈ 1.51 µM) | MIC ([2]; fully susceptible (n = 20)): 0.12 to 2 mg/L (≈ 0.362 to 6.04 µM) | MIC90 ([2]; fully susceptible (n = 20)): 0.5 mg/L (≈ 1.51 µM) | MIC ([2]; multi-drug resistant (n = 20)): 0.25 to 1 mg/L (≈ 0.754 to 3.02 µM) | MIC90 ([2]; multi-drug resistant (n = 20)): 0.5 mg/L (≈ 1.51 µM) | MIC90 [3, 28]: 0.015 mg/L (≈ 0.0453 µM) | MIC [3, 28]: 0.0075 to 0.5 mg/L (≈ 0.0226 to 1.51 µM) | MIC50 [3, 28]: ≤ 0.00075 mg/L | MIC ([3]; β-lactamase negative (n = 80)): 0.0075 to 0.5 mg/L (≈ 0.0226 to 1.51 µM) | MIC50 ([3]; β-lactamase negative (n = 80)): ≤ 0.0075 mg/L | MIC ([3]; β-lactamase positive (n = 20)): 0.0075 to 0.015 mg/L (≈ 0.0226 to 0.0453 µM) | MIC50 ([3]; β-lactamase positive (n = 20)): ≤ 0.0075 mg/L | MIC ([4]; Moraxella catarrhalis (n = 50)): 0.00375 to 0.06 mg/L (≈ 0.0113 to 0.181 µM) | MIC50 ([4]; Moraxella catarrhalis (n = 50)): 0.03 mg/L (≈ 0.0905 µM) | MIC ([4]; β-lactamase negative (n = 13)): 0.00375 to 0.03 mg/L (≈ 0.0113 to 0.0905 µM) | MIC50 ([4]; β-lactamase negative (n = 13)): 0.015 mg/L (≈ 0.0453 µM) | MIC ([4]; β-lactamase positive (n = 37)): 0.00375 to 0.06 mg/L (≈ 0.0113 to 0.181 µM) | MIC50 ([4]; β-lactamase positive (n = 37)): 0.03 mg/L (≈ 0.0905 µM) | MIC ([5]; Staphylococcus aureus (n = 50)): 0.06 to 4 mg/L (≈ 0.181 to 12.1 µM) | MIC50 ([5]; Staphylococcus aureus (n = 50)): 2 mg/L (≈ 6.04 µM) | MIC ([5]; β-lactamase negative (n = 20)): 0.06 to 4 mg/L (≈ 0.181 to 12.1 µM) | MIC50 ([5]; β-lactamase negative (n = 20)): 2 mg/L (≈ 6.04 µM) | MIC Range ([6]; Klebsiella pneumoniae (n = 50)): ≤0.0075 to 1 mg/L | MIC50 [6, 29]: 0.12 mg/L (≈ 0.362 µM) | MIC90 [6, 29]: 0.5 mg/L (≈ 1.51 µM) | MIC90 ([6]; Klebsiella pneumoniae, extended spectrum β-lactamase negative (n = 30)): 0.03 mg/L (≈ 0.0905 µM) | MIC90 ([6]; Klebsiella pneumoniae, extended spectrum β-lactamase positive (n = 20)): 0.5 mg/L (≈ 1.51 µM) | MIC Range ([6]; extended spectrum β-lactamase negative (n = 30)): ≤0.0075 to 0.12 mg/L | MIC Range ([6]; extended spectrum β-lactamase positive (n = 20)): 0.015 to 0.5 mg/L | MIC Range [7]: 0.008 to 0.031 mg/L | MIC50 [8]: 0.031 mg/L (≈ 0.0936 µM) | MIC Range [8]: 0.031 to 0.063 mg/L | MIC ([9]; Ciprofloxacin-resistant (21)): 8 to 128 mg/L (≈ 24.1 to 386 µM) | MIC ([9]; Ciprofloxacin-susceptible (94)): 0.25 to 4 mg/L (≈ 0.754 to 12.1 µM) | MIC ([9]; Erythromycin-resistant (37)): 0.5 to 64 mg/L (≈ 1.51 to 193 µM) | MIC ([9]; Minocycline-resistant (37)): 0.25 to 64 mg/L (≈ 0.754 to 193 µM) | MIC ([9]; Penicillin-resistant (19)): 0.5 to 8 mg/L (≈ 1.51 to 24.1 µM) | MIC50 ([9]; Penicillin-resistant (19), read-out: MIC50): 0.5 mg/L (≈ 1.51 µM) | MIC ([10]; E. coli KU1030, mutant type SP): 0.063 mg/L (≈ 0.19 µM) | MIC ([10]; E. coli KU1036, mutant type GB (DNA gyrase B)): 0.063 mg/L (≈ 0.19 µM) | MIC ([10]; E. coli KU1038, mutant type SP): 0.063 mg/L (≈ 0.19 µM) | MIC ([10]; E. coli KU1042, mutant type SP): 0.063 mg/L (≈ 0.19 µM) | MIC [11]: 1 mg/L (≈ 3.02 µM) | MIC50 [12]: 0.5 mg/L (≈ 1.51 µM) | MIC50 ([13]; Escherichia coli): ≤ 0.03 mg/L | MIC Range [13]: ≤0.03 to 64 mg/L | MIC50 ([14]; Klebsiella pneumoniae): ≤ 0.03 mg/L | MIC90 ([14]; Klebsiella pneumoniae): 0.5 mg/L (≈ 1.51 µM) | MIC Range [14]: ≤0.03 to 8 mg/L | MIC50 [15]: 0.06 mg/L (≈ 0.181 µM) | MIC50 [16]: ≤ 0.03 mg/L | MIC90 [17]: > 64 mg/L | MIC (mg/L) Range ([18]; Salmonella spp. N= 106): ≤0.015 to 1 mg/L | MIC ([19]; 24 h, Yersinia enterocolitica N= 22, read-out: MIC (mg/L) Range): 0.015 to 0.25 mg/L (≈ 0.0453 to 0.754 µM) | MIC (mg/L) Range ([20]; Aeromonas spp. N= 16): ≤0.015 to 0.06 mg/L | MIC (mg/L) Range ([21]; Campylobacter jejuni N= 91): 0.06 to 128 mg/L

CO/N=C1\CN(c2nc3c(cc2F)c(=O)c(C(=O)O)cn3C2CC2)CC1CN (racemic) [Gemifloxacin (SB 265805)]
% Susceptible ([18]; Salmonella spp. N= 106): 100% | MIC (mg/L) Range ([18]; Salmonella spp. N= 106): ≤0.015 to 0.25 mg/L | MIC ([18]; read-out: MIC (mg/L) 50%, Salmonella spp. N= 106): 0.03 mg/L (≈ 0.077 µM) | MIC ([18]; read-out: MIC (mg/L) 90%, Salmonella spp. N= 106): 0.12 mg/L (≈ 0.308 µM) | % Susceptible ([22]; Hafnia alvei N= 32): 100% | MIC ([22]; read-out: MIC (mg/L) 50%): 0.03 mg/L (≈ 0.077 µM) | MIC ([22]; read-out: MIC (mg/L) 90%): 0.03 mg/L (≈ 0.077 µM) | % Susceptible ([19]; Yersinia enterocolitica N= 22): 100% | MIC (mg/L) Range ([19]; Yersinia enterocolitica N= 22): ≤0.015 to 0.12 mg/L | MIC ([19]; Yersinia enterocolitica, read-out: MIC (mg/L) 50%): 0.03 mg/L (≈ 0.077 µM) | MIC ([19]; Yersinia enterocolitica, read-out: MIC (mg/L) 90%): 0.03 mg/L (≈ 0.077 µM) | % Susceptible [23]: 100% | MIC (mg/L) Range [23]: ≤0.015 mg/L | MIC ([23]; read-out: MIC (mg/L) 50%): ≤ 0.015 mg/L | MIC ([23]; read-out: MIC (mg/L) 90%): ≤ 0.015 mg/L | % Susceptible ([20]; Aeromonas spp. N= 16): 100% | MIC ([20]; read-out: MIC (mg/L) 50%): ≤ 0.015 mg/L | MIC ([20]; read-out: MIC (mg/L) 90%): 0.03 mg/L (≈ 0.077 µM) | % Susceptible [24]: 32% | MIC (mg/L) Range [24]: 0.03 to 128 mg/L | MIC ([21]; read-out: MIC (mg/L) 50%): 32 mg/L (≈ 82.2 µM) | MIC ([21]; read-out: MIC (mg/L) 90%): 128 mg/L (≈ 329 µM)
